Test results reported in ChEMBL document CHEMBL1201862, “PubChem BioAssay data set” (2004).
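48-hour exposure; five concentrations; linearly interpolated endpoints. GI50: concentration for 50% inhibition of growth.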 Activity calls are given as the source filed them. Rule as the data show it: active = GI50 up to about 1.1 µM and inactive = higher.

Legend:
Test in all cases: NCI tumour cell line growth inhibition, 48 h
786-0 = system: 786-0
COLO 205 = system: COLO 205
EKVX = system: EKVX
HCC 2998 = system: HCC 2998
HCT-15 = system: HCT-15
HT-29 = system: HT-29
K562 = system: K562
M14 = system: M14
NCI-H226 = system: NCI-H226
NCI-H23 = system: NCI-H23
SF-268 = system: SF-268
SF-295 = system: SF-295
SF-539 = system: SF-539
SK-MEL-28 = system: SK-MEL-28
SK-MEL-5 = system: SK-MEL-5
TK-10 = system: TK-10
U-251 = system: U-251
UO-31 = system: UO-31
HL-60 = system: HL-60

SMILES | GI50 (786-0) | GI50 (COLO 205) | GI50 (EKVX) | GI50 (HCC 2998) | GI50 (HCT-15) [µM] | GI50 (HT-29) | GI50 (K562) | GI50 (M14) | GI50 (NCI-H226) | GI50 (NCI-H23) | GI50 (SF-268) | GI50 (SF-295) | GI50 (SF-539) | GI50 (SK-MEL-28) | GI50 (SK-MEL-5) | GI50 (TK-10) | GI50 (U-251) | GI50 (UO-31) | GI50 (HL-60)
COC(=O)[C@]1(C)CCCn2c(=O)n(-c3ccccc3)c(=O)n21 | > 100 µM (inactive) | > 100 µM (inactive) | > 100 µM (inactive) | > 100 µM (inactive) | > 100 | > 100 µM (inactive) | > 100 µM (inactive) | > 100 µM (inactive) | 68.1 µM (inactive) | > 100 µM (inactive) | > 100 µM (inactive) | > 100 µM (inactive) | > 100 µM (inactive) | > 100 µM (inactive) | > 100 µM (inactive) | > 100 µM (inactive) | > 100 µM (inactive) | > 100 µM (inactive) | –
CC1C(/C=C/c2ccoc2)ON2CCCC12 (stereo unspecified) | > 100 µM (inactive) | > 100 µM (inactive) | > 100 µM (inactive) | > 100 µM (inactive) | – | > 100 µM (inactive) | – | > 10 µM (inactive) | > 100 µM (inactive) | > 100 µM (inactive) | > 100 µM (inactive) | > 100 µM (inactive) | > 100 µM (inactive) | > 100 µM (inactive) | – | > 100 µM (inactive) | > 100 µM (inactive) | > 100 µM (inactive) | > 100 µM (inactive)
O=C(CC1=NCCN1)c1ccccc1 | – | > 750 µM (inactive) | > 750 µM (inactive) | > 750 µM (inactive) | > 750 | > 750 µM (inactive) | > 750 µM (inactive) | – | > 536 µM (inactive) | > 750 µM (inactive) | > 750 µM (inactive) | > 750 µM (inactive) | > 750 µM (inactive) | > 750 µM (inactive) | > 750 µM (inactive) | – | > 750 µM (inactive) | 721 µM (inactive) | 455 µM (inactive)
COc1cc2c(cc1OC)-c1c3c(cc4c1[C@@H](C2)N(C)CC4)OCO3 | – | 4.23 µM (inactive) | 11.4 µM (inactive) | 9.35 µM (inactive) | 5.77 | 6.4 µM (inactive) | 5.36 µM (inactive) | – | 7.06 µM (inactive) | 10.2 µM (inactive) | 7.69 µM (inactive) | 1.64 µM (inactive) | 5.94 µM (inactive) | 12.2 µM (inactive) | 7.52 µM (inactive) | – | 10.8 µM (inactive) | 11.8 µM (inactive) | 7.26 µM (inactive)
Cc1ccc(S(=O)(=O)N/N=C(/c2nc3ccc([N+](=O)[O-])cc3nc2O)C(O)c2ccc(C(O)/C(=N\NS(=O)(=O)c3ccc(C)cc3)c3nc4ccc([N+](=O)[O-])cc4nc3O)cc2)cc1 (stereo unspecified) | > 100 µM (inactive) | 41.4 µM (inactive) | 81.7 µM (inactive) | 28 µM (inactive) | – | 31 µM (inactive) | 13 µM (inactive) | 20.8 µM (inactive) | – | > 100 µM (inactive) | – | – | 42.9 µM (inactive) | > 100 µM (inactive) | 28.1 µM (inactive) | > 100 µM (inactive) | 67.6 µM (inactive) | 38.4 µM (inactive) | 7.82 µM (inactive)
COC(=O)c1cc2c3c(cc(N(C)C)c2[nH]1)N(C(=O)c1cc2cc(OC)c(OC)c(OC)c2[nH]1)CC3CCl (stereo unspecified) | < 0.0025 µM (active) | 0.00557 µM (active) | 0.0146 µM (active) | 0.00948 µM (active) | 0.00468 | 0.25 µM (active) | 0.00317 µM (active) | 0.00294 µM (active) | 0.00362 µM (active) | 0.00381 µM (active) | 0.00374 µM (active) | 0.00379 µM (active) | 0.00653 µM (active) | 0.00641 µM (active) | 0.00333 µM (active) | 0.00968 µM (active) | < 0.0025 µM (active) | 0.00316 µM (active) | –
COc1cc(/C=C/C(=O)O)ccc1C(=O)OCc1ccccc1 | – | > 100 µM (inactive) | > 100 µM (inactive) | > 100 µM (inactive) | > 100 | > 100 µM (inactive) | > 100 µM (inactive) | – | > 100 µM (inactive) | > 100 µM (inactive) | > 100 µM (inactive) | > 100 µM (inactive) | > 100 µM (inactive) | > 100 µM (inactive) | > 100 µM (inactive) | – | > 100 µM (inactive) | > 100 µM (inactive) | > 100 µM (inactive)
CN(C)CCNC(=O)c1cccc2cc3cc(O)ccc3nc12 | – | 0.897 µM (active) | 1.95 µM (inactive) | 2.2 µM (inactive) | 1.23 | 1.02 µM (active) | 1.43 µM (inactive) | – | 0.621 µM (active) | 1.24 µM (inactive) | 1.48 µM (inactive) | 1 µM (active) | 1.11 µM (active) | 1.92 µM (inactive) | 1.23 µM (inactive) | – | 1.36 µM (inactive) | 1.12 µM (active) | 0.355 µM (active)
